Experimental data taken from ChEMBL document CHEMBL6087460, “Generating a Peptide Library Using the Repeats of Amino Acid Scaffolds Created by Sliding the Framework of a 7-mer Human Chemerin Segment and Discovery of Potent Antibacterial and Antimycobacterial Peptides” (J Med Chem, 2025).
Converted amounts (≈) assume the structure as drawn. The source made the active and inactive calls. The rule behind the calls is not given here. Where a SMILES comes first, the peptide text is derived from it.

Tests used:
[1] = Drug localization in cell membrane of Escherichia coli ATCC 25922 at 3 times MIC by confocal microscopy; type: ADME, cell membranes
Escherichia coli [2] = test: Antibacterial activity against Escherichia coli ATCC 25922 incubated for 16 to 18 hrs by broth dilution assay; type: functional; settings: time 16-18 hrs
Klebsiella pneumoniae = test: Antibacterial activity against Klebsiella pneumoniae ATCC 27736 incubated for 16 to 18 hrs by broth dilution assay; type: functional; settings: time 16-18 hrs
Pseudomonas aeruginosa = test: Antibacterial activity against Pseudomonas aeruginosa ATCC BAA-427 incubated for 16 to 18 hrs by broth dilution assay; type: functional; settings: time 16-18 hrs
Staphylococcus aureus [3] = test: Antibacterial activity against Staphylococcus aureus ATCC 25923 incubated for 16 to 18 hrs by broth dilution assay; type: functional; settings: time 16-18 hrs
Bacillus subtilis = test: Antibacterial activity against Bacillus subtilis 6633 incubated for 16 to 18 hrs by broth dilution assay; type: functional; settings: time 16-18 hrs
Staphylococcus aureus [4] = test: Antibacterial activity against methicillin-resistant Staphylococcus aureus 33591 incubated for 16 to 18 hrs by broth dilution assay; type: functional; settings: time 16-18 hrs
Staphylococcus aureus [5] = test: Antibacterial activity against methicillin-resistant Staphylococcus aureus BAA-44 incubated for 16 to 18 hrs by broth dilution assay; type: functional; settings: time 16-18 hrs
Escherichia coli [6] = test: Induction of resistance development in Escherichia coli ATCC 25922 assessed as fold increase in MIC at sub-MIC measured after 30 passages relative to control; type: functional
Staphylococcus aureus [7] = test: Induction of resistance development in Staphylococcus aureus ATCC 25923 assessed as fold increase in MIC at sub-MIC measured after 30 passages relative to control; type: functional
Staphylococcus aureus [8] = test: Induction of resistance development in methicillin-resistant Staphylococcus aureus 33591 assessed as fold increase in MIC at sub-MIC measured after 30 passages relative to control; type: functional
Staphylococcus aureus [9] = test: Induction of resistance development in methicillin-resistant Staphylococcus aureus BAA-44 assessed as fold increase in MIC at sub-MIC measured after 30 passages relative to control; type: functional
[10] = system: Mycolicibacterium smegmatis; test: Antitubercular activity against Mycobacterium smegmatis incubated for 24 hrs by rezasurin dye based assay; type: functional
[11] = Retention time of compound by RP-HPLC method; type: physicochemical
[12] = Hemolytic activity in human RBC at 100 uM measured after 40 mins by absorbance based assay relative to control; type: toxicity, cell-based, Erythrocyte; settings: for hemolysis at 40 min, 100 µM: human red blood cells, read-out: Activity
[13] = Hemolytic activity in human RBC measured after 40 mins by absorbance based assay; type: toxicity, cell-based, Erythrocyte; settings: human red blood cells
Escherichia coli [14] = test: Bactericidal activity against Escherichia coli ATCC 25922 incubated for 16 to 18 hrs; type: functional; settings: time 16-18 hrs
Escherichia coli [15] = test: Antibacterial activity against Escherichia coli ATCC 25922 incubated for 16 to 18 hrs in presence of 10 percent human serum by broth dilution assay; type: functional; settings: time 16-18 hrs
Staphylococcus aureus [16] = test: Bactericidal activity against Staphylococcus aureus ATCC 25923 incubated for 16 to 18 hrs; type: functional; settings: time 16-18 hrs
Staphylococcus aureus [17] = test: Antibacterial activity against Staphylococcus aureus ATCC 25923 incubated for 16 to 18 hrs in presence of 10 percent human serum by broth dilution assay; type: functional; settings: time 16-18 hrs
[18] = Cytotoxicity against mouse 3T3-L1 cells assessed as cell viability at 100 uM incubated for 24 hrs by MTT assay relative to control; type: toxicity, cell-based; settings: 3T3-L1 cells, read-out: Activity
[19] = Cytotoxicity against rat L6 cells assessed as cell viability at 100 uM incubated for 24 hrs by MTT assay relative to control; type: toxicity, cell-based; settings: L6 cells, read-out: Activity
Escherichia coli [20] = test: Bactericidal activity against Escherichia coli ATCC 25922 at MIC incubated for 45 mins by time kill assay; type: functional, organism-based
Staphylococcus aureus [21] = test: Bactericidal activity against Staphylococcus aureus ATCC 25923 at MIC incubated for 45 mins by time kill assay; type: functional, organism-based
Escherichia coli [22] = test: Induction of membrane depolarization in Escherichia coli ATCC 25922 by diSC3-5 dye based analysis; type: functional, organism-based
Staphylococcus aureus [23] = test: Induction of membrane depolarization in Staphylococcus aureus ATCC 25923 by diSC3-5 dye based analysis; type: functional, organism-based
Escherichia coli [24] = test: Disruption of plasma membrane integrity in Escherichia coli ATCC 25922 by SYTOX-Green uptake assay; type: functional, organism-based
Staphylococcus aureus [25] = test: Disruption of plasma membrane integrity in Staphylococcus aureus ATCC 25923 by SYTOX-Green uptake assay; type: functional, organism-based
Escherichia coli [26] = test: Disruption of membrane integrity in Escherichia coli ATCC 25922 by PI staining based analysis; type: functional, organism-based
Staphylococcus aureus [27] = test: Disruption of membrane integrity in Staphylococcus aureus ATCC 25923 by PI staining based analysis; type: functional, organism-based
[28] = Hemolytic activity in human RBC assessed as disruption of membrane integrity by Alexa Fluor-Annexin V staining based analysis; type: toxicity, cell-based; settings: erythrocyte
[29] = Stability in 10 percent human serum assessed as compound remaining measured after 60 mins by RP-HPLC analysis; type: ADME, cell-free; settings: 10% human serum, read-out: Stability
Escherichia coli [30] = test: Bactericidal activity against Escherichia coli ATCC 25922 at MIC incubated for 60 mins by time kill assay; type: functional, organism-based
Staphylococcus aureus [31] = test: Bactericidal activity against Staphylococcus aureus ATCC 25923 at MIC incubated for 60 mins by time kill assay; type: functional, organism-based
Escherichia coli [32] = test: Induction of cell membrane damage in Escherichia coli ATCC 25922 at 3 times MIC incubated for 60 mins by SEM analysis; type: functional, organism-based
Staphylococcus aureus [33] = test: Induction of cell membrane damage in Staphylococcus aureus ATCC 25923 at 3 times MIC incubated for 60 mins by SEM analysis; type: functional, organism-based

Compound | MIC (Escherichia coli [2]) | MIC (Klebsiella pneumoniae) | MIC (Pseudomonas aeruginosa) | MIC (Staphylococcus aureus [3]) | MIC (Bacillus subtilis) | MIC (Staphylococcus aureus [4]) | MIC (Staphylococcus aureus [5]) | Retention_time [11] | hemolysis at 40 min, 100 µM [12] | HC50 at 40 min [13] | other results
CC(C)C[C@H](NC(=O)[C@H](CCCNC(=N)N)NC(=O)[C@@H](NC(=O)[C@H](CC(C)C)NC(=O)[C@H](CCCNC(=N)N)NC(=O)[C@@H](NC(=O)[C@H](CC(C)C)NC(=O)[C@H](CCCNC(=N)N)NC(=O)[C@@H](NC(=O)[C@H](CC(C)C)NC(=O)[C@H](CCCNC(=N)N)NC(=O)c1cc(C(=O)O)ccc1-c1c2ccc(=[N+](C)C)cc-2oc2cc(N(C)C)ccc12)C(C)C)C(C)C)C(C)C)C(=O)N[C@H](C(=O)O)C(C)C.[Cl-] (HELM PEPTIDE1{[CN(C)c1ccc2c(-c3ccc(C(=O)O)cc3C(=O)[*:2])c3ccc(=[N+](C)C)cc-3oc2c1].R.L.V.R.L.V.R.L.V.R.L.V}$$$$V2.0) | – | – | – | – | – | – | – | – | – | – | Drug uptake [1]: Active
O=C(O)c1cn(C2CC2)c2cc(N3CCNCC3)c(F)cc2c1=O [CIPROFLOXACIN] | 0.1 µM (≈ 0.0331 µg/mL) | 0.1 µM (≈ 0.0331 µg/mL) | 6.3 µM (≈ 2.09 µg/mL) | 6.3 µM (≈ 2.09 µg/mL) | 6.3 µM (≈ 2.09 µg/mL) | 6.3 µM (≈ 2.09 µg/mL) | 6.3 µM (≈ 2.09 µg/mL) | – | – | – | fold change (FC) (Escherichia coli [6]): 128; fold change (FC) (Staphylococcus aureus [7]): 128; fold change (FC) (Staphylococcus aureus [8]): 128; fold change (FC) (Staphylococcus aureus [9]): 128
CO[C@H]1/C=C/O[C@@]2(C)Oc3c(C)c(O)c4c(O)c(c(/C=N/N5CCN(C)CC5)c(O)c4c3C2=O)NC(=O)/C(C)=C\C=C\[C@H](C)[C@H](O)[C@@H](C)[C@@H](O)[C@@H](C)[C@H](OC(C)=O)[C@@H]1C [RIFAMPIN] | – | – | – | – | – | – | – | – | – | – | MIC [10]: 0.25 µM (≈ 0.206 µg/mL)
CN(C)[C@@H]1C(O)=C(C(N)=O)C(=O)[C@@]2(O)C(O)=C3C(=O)c4c(O)cccc4[C@@](C)(O)[C@H]3C[C@@H]12 [TETRACYCLINE] | 3.1 µM (≈ 1.38 µg/mL) | 3.1 µM (≈ 1.38 µg/mL) | 50 µM (≈ 22.2 µg/mL) | 3.1 µM (≈ 1.38 µg/mL) | 1.6 µM (≈ 0.711 µg/mL) | 100 µM (≈ 44.4 µg/mL) | 100 µM (≈ 44.4 µg/mL) | – | – | – | fold change (FC) (Escherichia coli [6]): 32; fold change (FC) (Staphylococcus aureus [7]): 64; fold change (FC) (Staphylococcus aureus [8]): <=64; fold change (FC) (Staphylococcus aureus [9]): 128
H-KVKVKVKVKV-OH | 21.7 µM | 43.4 µM | 21.7 µM | 21.7 µM | 10.9 µM | 43.4 µM | 21.7 µM | 10.88 min | 18% | 283 µM | –
H-KVKVKVKVKVKV-OH | 18.1 µM | 72.4 µM | 36.2 µM | 36.2 µM | 9.1 µM | 36.2 µM | 18.1 µM | 10.81 min | 42% | 118 µM | –
H-KVKVKVKVKVKVKV-OH | 7.8 µM | 7.8 µM | 31.1 µM | 7.8 µM | 3.8 µM | 15.5 µM | 15.5 µM | 10.73 min | 80% | 62 µM | –
H-KVLGKVLGKVLGKVLG-OH | 3.9 µM | 7.8 µM | 15.6 µM | 7.8 µM | 15.6 µM | 7.8 µM | 3.9 µM | 20.12 min | – | 2000 µM | MBC (Escherichia coli [14]): 3.9 µM; MIC (Escherichia coli [15]): 3.9 µM; MBC (Staphylococcus aureus [16]): 12.6 µM; MIC (Staphylococcus aureus [17]): 12.6 µM; viability at 24 h, 100 µM [18]: 75%; viability at 24 h, 100 µM [19]: 75%; Activity (Escherichia coli [20]): Active; Activity (Staphylococcus aureus [21]): Active; Activity (Escherichia coli [22]): Active; Activity (Staphylococcus aureus [23]): Active; Activity (Escherichia coli [24]): Active; Activity (Staphylococcus aureus [25]): Active; Activity (Escherichia coli [26]): Active; Activity (Staphylococcus aureus [27]): Active; Activity [28]: Non-toxic; MIC [10]: > 10 µM
H-KVLKVLKVLKVLKVL-OH | 1.8 µM | 3.6 µM | 14.5 µM | 3.6 µM | 3.6 µM | 3.6 µM | 3.6 µM | 20.77 min | 20% | 256 µM | remaining at 1 h [29]: 65%
H-LGRLLGRLLGRL-OH | 9.4 µM | 37.4 µM | 37.4 µM | 9.4 µM | 9.4 µM | 9.4 µM | 4.7 µM | 15.4 min | – | 2000 µM | Activity ([12]; erythrocyte, 40 min, 100 µM): Non-toxic; MBC (Escherichia coli [14]): 18.2 µM; MIC (Escherichia coli [15]): 18.2 µM; MBC (Staphylococcus aureus [16]): 18.2 µM; MIC (Staphylococcus aureus [17]): 18.2 µM; viability at 24 h, 100 µM [18]: > 80%; viability at 24 h, 100 µM [19]: > 80%; Activity (Escherichia coli [30]): Active; Exhibited Rapid Kinetics; Activity (Staphylococcus aureus [31]): Active; Exhibited Rapid Kinetics; Activity (Escherichia coli [22]): Active; Activity (Staphylococcus aureus [23]): Active; Activity (Escherichia coli [24]): Active; Activity (Staphylococcus aureus [25]): Active; Activity (Escherichia coli [26]): Active; Activity (Staphylococcus aureus [27]): Active; Activity [28]: Non-toxic; MIC [10]: 5 µM
H-LGRLLGRLLGRLLGRL-OH | 1.8 µM | 1.8 µM | 3.5 µM | 1.8 µM | 1.8 µM | 1.8 µM | 1.8 µM | 20.87 min | 95% | 51 µM | –
H-RLRLRLRLRLRL-OH | 1.9 µM | 30.6 µM | 15.3 µM | 3.8 µM | 3.8 µM | 15.3 µM | 15.3 µM | 15.99 min | 17% | 279 µM | –
H-RLRLRLRLRLRLRL-OH | 3.3 µM | 26.2 µM | 13.1 µM | 3.3 µM | 3.3 µM | 13.1 µM | 13.1 µM | 16.72 min | 20% | 249 µM | –
H-RLVRLVRLVRLV-OH | 4.2 µM | 8.4 µM | 8.4 µM | 4.2 µM | 2.1 µM | 4.2 µM | 4.2 µM | 19.25 min | – | 2000 µM | MBC (Escherichia coli [14]): 8.4 µM; MIC (Escherichia coli [15]): 16.8 µM; MBC (Staphylococcus aureus [16]): 8.4 µM; MIC (Staphylococcus aureus [17]): 16.8 µM; viability at 24 h, 100 µM [18]: 75%; viability at 24 h, 100 µM [19]: 75%; Activity (Escherichia coli [20]): Active; Activity (Staphylococcus aureus [21]): Active; Activity (Escherichia coli [22]): Active; Activity (Staphylococcus aureus [23]): Active; Activity (Escherichia coli [24]): Active; Activity (Staphylococcus aureus [25]): Active; Activity (Escherichia coli [26]): Active; Activity (Staphylococcus aureus [27]): Active; Activity [28]: Non-toxic; Activity (Escherichia coli [32]): Active; Activity (Staphylococcus aureus [33]): Active; MIC [10]: 5 µM
